Data reported in publication PMC7339578, “Multiple circulating alkaloids and saponins from intravenous Kang-Ai injection inhibit human cytochrome P450 and UDP-glucuronosyltransferase isozymes: potential drug–drug interactions” (Chinese Medicine, 2020).

What was measured:
[1] = Protein binding assay (equilibrium dialysis); type: in vitro ADME, rat; conditions: rat plasma; equilibrium dialysis 24 h, 37 °C; 2 μmol/L alkaloids, 4 μmol/L saponins; read-out: fu-plasma (unbound fraction)
Summary of the method: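 Rat plasma binding was measured by equilibrium dialysis (12–14 kDa cutoff membrane), equilibrated 24 h at 37 °C and 55 rpm. Alkaloids were tested at 2 μmol/L and saponins at 4 μmol/L. Unbound fraction = dialysate concentration/post-dialysis plasma concentration × 100%.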

[2] = target: CYP2C9 (Homo sapiens, UniProt P11712); test: Inhibition of recombinant CYP2C9 (probe tolbutamide); type: in vitro ADME; conditions: recombinant isozyme, mean ± SD of triplicate, unit not given (IC50 classes in μM)
Protocol: In this study, phenacetin (100 μM), coumarin (100 μM), bupropion (100 μM), paclitaxel (60 μM), tolbutamide (200 μM), mephenytoin (100 μM), chlorzoxazone (200 μM) and nifedipine (40 μM) have been used as the probe substrates for CYP1A2, 2A6, 2B6, 2C8, 2C9, 2C19, 2E1 and 3A4, respectively.

[3] = target: T1, UGT1A1 (Homo sapiens, UniProt P22309); test: Inhibition of expressed UGT1A1 (probe β-estradiol); type: in vitro ADME; conditions: recombinant isozyme; mean ± SD of triplicate; unit not given (IC50 classes in μM); read-out: IC50 towards UGT1A1
T1 sequence (P22309 26-533): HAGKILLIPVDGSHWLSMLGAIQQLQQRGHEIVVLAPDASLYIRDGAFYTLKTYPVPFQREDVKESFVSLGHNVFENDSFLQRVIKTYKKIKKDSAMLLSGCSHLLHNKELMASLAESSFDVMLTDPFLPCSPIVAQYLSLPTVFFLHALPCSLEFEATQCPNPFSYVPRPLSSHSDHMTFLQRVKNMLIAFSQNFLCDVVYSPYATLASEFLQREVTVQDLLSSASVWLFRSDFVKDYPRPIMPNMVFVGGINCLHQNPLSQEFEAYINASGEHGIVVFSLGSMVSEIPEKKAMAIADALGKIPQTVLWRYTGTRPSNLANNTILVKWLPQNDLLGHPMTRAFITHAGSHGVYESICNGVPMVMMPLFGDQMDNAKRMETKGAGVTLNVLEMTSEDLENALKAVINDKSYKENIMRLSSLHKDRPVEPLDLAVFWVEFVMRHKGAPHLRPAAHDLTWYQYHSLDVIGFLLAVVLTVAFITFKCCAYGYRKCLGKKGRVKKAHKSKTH
Protocol: (§1) After centrifugation (13,800g, 10 min), the supernatant (8 μL) was obtained for determination by UHPLC system.
(§2) Similarly, β-estradiol (60 μM), propofol (40 μM) and 4-MU (350 μM) were typically used as the substrates for UGT1A1, 1A9 and 2B7, respectively. After optimization of incubation conditions (Additional file 1: Fig. S2), the protein concentrations for UGT1A1, 1A9, and 2B7 were 0.125, 0.05, and 0.05 mg/mL, respectively.

[4] = target: T2, UGT2B7 (Homo sapiens, UniProt P16662); test: Inhibition of expressed UGT2B7 (probe 4-MU); type: in vitro ADME; conditions: recombinant isozyme; mean ± SD of triplicate; unit not given (IC50 classes in μM); read-out: IC50 towards UGT2B7
T2 sequence (P16662 24-529): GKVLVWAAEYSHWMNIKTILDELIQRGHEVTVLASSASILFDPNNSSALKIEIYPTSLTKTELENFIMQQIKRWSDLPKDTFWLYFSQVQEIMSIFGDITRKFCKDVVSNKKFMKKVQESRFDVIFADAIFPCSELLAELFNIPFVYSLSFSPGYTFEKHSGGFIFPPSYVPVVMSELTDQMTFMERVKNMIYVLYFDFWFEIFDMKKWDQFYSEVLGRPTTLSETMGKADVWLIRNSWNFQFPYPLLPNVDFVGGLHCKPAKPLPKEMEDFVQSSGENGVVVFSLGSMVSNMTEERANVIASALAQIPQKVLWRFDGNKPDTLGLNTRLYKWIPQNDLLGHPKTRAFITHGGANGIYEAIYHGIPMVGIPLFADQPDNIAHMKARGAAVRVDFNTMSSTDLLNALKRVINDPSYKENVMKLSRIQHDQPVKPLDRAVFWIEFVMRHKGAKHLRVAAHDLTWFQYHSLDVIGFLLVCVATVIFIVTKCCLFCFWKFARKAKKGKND
Protocol: as §1, §2

[5] = Stability tests of analytes in rat plasma QC samples; type: in vitro ADME
Protocol: […] The dilution integrity was investigated by analyzing six replicate samples with each analyte, and each analyte were diluted 10-fold with blank rat matrix. Furthermore, the diluted samples were analyzed using freshly prepared calibration curve to calculate RE and RSD, which should be no more than ± 15% as criterion.

[6] = rat plasma, nominal conc. 20 nM
[7] = rat plasma, nominal conc. 100 nM
[8] = rat plasma, nominal conc. 400 nM

Chain of CYP2C9 (P11712 whole entry): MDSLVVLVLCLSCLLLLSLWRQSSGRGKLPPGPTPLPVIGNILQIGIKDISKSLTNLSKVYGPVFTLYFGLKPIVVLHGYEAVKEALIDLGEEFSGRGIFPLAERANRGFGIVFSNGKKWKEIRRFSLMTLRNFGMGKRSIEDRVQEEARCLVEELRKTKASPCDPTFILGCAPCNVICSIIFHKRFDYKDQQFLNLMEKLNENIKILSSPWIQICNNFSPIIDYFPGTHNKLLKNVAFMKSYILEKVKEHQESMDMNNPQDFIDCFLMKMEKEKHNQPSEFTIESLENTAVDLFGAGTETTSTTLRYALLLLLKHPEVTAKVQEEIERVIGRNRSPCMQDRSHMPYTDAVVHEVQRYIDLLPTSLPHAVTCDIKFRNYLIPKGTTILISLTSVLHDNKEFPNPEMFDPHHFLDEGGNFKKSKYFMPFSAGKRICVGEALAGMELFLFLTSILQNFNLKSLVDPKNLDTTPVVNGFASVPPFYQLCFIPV

SMILES	fraction unbound at 24 h [1]	IC50 [3] [µM]	IC50 [4] [µM]	At -80 °C for 48 h, Mean±SD [5, 6] [nM]	At -80 °C for 48 h, RE [5, 6] [%]	Extracted samples at 8 °C for 18 h, Mean±SD [5, 6] [nM]	Extracted samples at 8 °C for 18 h, RE [5, 6] [%]	Short-term stability at room temperature for 6 h, Mean±SD [5, 6] [nM]	Short-term stability at room temperature for 6 h, RE [5, 6] [%]	Three freeze-thaw cycles (-80 °C ↔ 23 °C), Mean±SD [5, 6] [nM]	Three freeze-thaw cycles (-80 °C ↔ 23 °C), RE [5, 6] [%]	At -80 °C for 48 h, Mean±SD [5, 7] [nM]	At -80 °C for 48 h, RE [5, 7] [%]	Extracted samples at 8 °C for 18 h, Mean±SD [5, 7] [nM]	Extracted samples at 8 °C for 18 h, RE [5, 7] [%]	Short-term stability at room temperature for 6 h, RE [5, 7] [%]	Three freeze-thaw cycles (-80 °C ↔ 23 °C), Mean±SD [5, 7] [nM]	Three freeze-thaw cycles (-80 °C ↔ 23 °C), RE [5, 7] [%]	At -80 °C for 48 h, Mean±SD [5, 8] [nM]	At -80 °C for 48 h, RE [5, 8] [%]	also measured
CC(C)=CCC[C@](C)(O[C@@H]1O[C@H](CO)[C@@H](O)[C@H](O)[C@H]1O)[C@H]1CC[C@]2(C)[C@@H]1[C@H](O)C[C@@H]1[C@@]3(C)CC[C@H](O[C@@H]4O[C@H](CO)[C@@H](O)[C@H](O)[C@H]4O[C@@H]4O[C@H](CO)[C@@H](O)[C@H](O)[C@H]4O)C(C)(C)[C@@H]3CC[C@]12C [Compound D2, Ginsenoside Rd]	0.0075 ± 0.0008	> 100	> 100	20.86 ± 2.70	13.40	21.52 ± 1.04	11.29	20.41 ± 1.88	-8.78	21.38 ± 0.85	11.74	94.76 ± 3.45	-9.18	93.92 ± 4.07	-9.39	-8.93	101.66 ± 11.99	13.24	419.98 ± 19.52	10.54	IC50 ([2]; read-out: IC50 towards CYP2C9): > 100 µM; Short-term stability at room temperature for 6 h, Mean±SD [5, 7]: 96.61 ± 5.06 nM; Extracted samples at 8 °C for 18 h, Mean±SD [5, 8]: 411.97 ± 35.80 nM; Extracted samples at 8 °C for 18 h, RE [5, 8]: 9.32%; Short-term stability at room temperature for 6 h, Mean±SD [5, 8]: 362.78 ± 5.91 nM; Short-term stability at room temperature for 6 h, RE [5, 8]: -10.80%; Three freeze-thaw cycles (-80 °C ↔ 23 °C), Mean±SD [5, 8]: 397.28 ± 35.89 nM; Three freeze-thaw cycles (-80 °C ↔ 23 °C), RE [5, 8]: 9.66%
CC(C)=CCC[C@](C)(O[C@@H]1O[C@H](CO[C@@H]2O[C@@H](CO)[C@H](O)[C@H]2O)[C@@H](O)[C@H](O)[C@H]1O)[C@H]1CC[C@]2(C)[C@@H]1[C@H](O)C[C@@H]1[C@@]3(C)CC[C@H](O[C@@H]4O[C@H](CO)[C@@H](O)[C@H](O)[C@H]4O[C@@H]4O[C@H](CO)[C@@H](O)[C@H](O)[C@H]4O)C(C)(C)[C@@H]3CC[C@]12C [Compound D3, Ginsenoside Rc]	0.0112 ± 0.0012	> 100	> 100	21.79 ± 0.54	11.90	21.26 ± 0.64	9.82	21.00 ± 1.54	10.56	22.31 ± 0.31	12.70	92.14 ± 3.15	-10.73	91.90 ± 3.48	-12.09	-13.45	107.11 ± 6.52	11.88	421.69 ± 7.21	7.06	IC50 towards CYP2C9 [2]: Activation; Extracted samples at 8 °C for 18 h, Mean±SD [5, 8]: 432.26 ± 28.61 nM; Extracted samples at 8 °C for 18 h, RE [5, 8]: 12.97%; Short-term stability at room temperature for 6 h, Mean±SD [5, 8]: 366.80 ± 3.85 nM; Short-term stability at room temperature for 6 h, RE [5, 8]: -9.03%; Three freeze-thaw cycles (-80 °C ↔ 23 °C), Mean±SD [5, 8]: 413.15 ± 9.39 nM; Three freeze-thaw cycles (-80 °C ↔ 23 °C), RE [5, 8]: 5.12%; Short-term stability at room temperature for 6 h, Mean±SD ([5]; rat, 6 h, 100 nM): 94.62 ± 9.91 nM
